Results as given in PMC4707489, “A novel cell-penetrating peptide suppresses breast tumorigenesis by inhibiting β-catenin/LEF-1 signaling” (Scientific Reports, 2016).

Legend:
MCF-7 cells = test: Colony-formation assay; format: cell-based, human; settings: MCF-7, 100 μmol/l, 14 day post-transfection (Fig. 3e)
Experimental: (§1) Transwell chambers of […] pore size were used in the in vitro invasion assay. MCF-7 and MDA-MB-231 cells were seeded onto the upper chamber and incubated with TAT-NLS-BLBD-6 and TAT-NLS-BLBD-6m peptide and 10% fetal bovine serum medium were added to the bottom chamber well. After 24 hr, cells invading the lower chamber were fixed with 4% paraformaldehyde solution and stained with 0.1% crystal violet for 30 min at 37 °C. Three random field images were obtained by microscopy, and the number of invading cells were counted. For the migration assay, MCF-7 and MDA-MB-231 cells were seeded onto 6-well plates. After 24 hr, an artificial wound was created using a 10-μl pipette tip, and the wound was incubated with TAT-NLS-BLBD-6 or TAT-NLS-BLBD-6m for 24 hr at 37 °C. The images of wound healing were captured by microscopy, and the wound healing distances were calculated by Image J (U.S. National Institutes of Health, Bethesda, MD, USA). For the colony formation assay, MCF-7 and MDA-MB-231 cells were seeded into 10-cm dishes with the medium containing TAT-NLS-BLBD-6 or TAT-NLS-BLBD-6m. After 2 weeks, cells were fixed with 4% paraformaldehyde solution and stained with 0.1% crystal violet for 30 min at 37 °C.

MDA-MB-231 cells [1] = test: Colony-formation assay; format: cell-based, human; settings: MDA-MB-231, 100 μmol/l, 14 day post-transfection (Fig. 3e)
Experimental: as §1

[2] = tested on: MDA-MB-231-GFP cells xenograft; test: Xenograft tumor growth in nude mice; format: in vivo, mouse; settings: MDA-MB-231 xenograft, 1 and 10 mg/kg intratumoral once every 2 days for 35 days, n = 5 per group, vs control peptide
Description: (§2) All animal experiments were approved by the Kaohsiung Medical University Institutional Animal Care and Use Committee (IACUC Approval No: 101156) and we accordance with the approved guidelines. Female nude mice (4–5 weeks old) were obtained from the National Laboratory Animal Center (Taipei, Taiwan). Xenograft tumor models were established by subcutaneous injection of 1 × 10^7 MCF-7-YFP or MDA-MB-231-GFP cells into the right flanks of mice. Mice with palpable tumors were randomly divided into three groups with five animals in each group. The mice were treated with control peptide, […], 1 and 10 mg/kg TAT-NLS-BLBD-6 by intratumoral injection once every 2 days for 35 days. The fluorescence density was analyzed by an In Vivo Imaging System (IVIS) (Berthold Technologies, Bad Wildbad, Germany), and the tumor volumes (V) of nude mice were calculated by: V = length × diameter^2 × 0.5. For zebrafish xenotransplantation, zebrafishes (Danio rerio) were maintained at 28 °C in an air incubator, and 1 × 10^4 MCF-7-GFP or MDA-MB-231-GFP cells combined with TAT-NLS-BLBD-6 or control peptide were injected into the zebrafish embryos according to the previously described protocol. The fluorescence density was measured 24 and 28 hr after injection using an epifluorescence microscope.

[3] = tested on: MCF-7-YFP cells xenograft; test: Xenograft tumor growth in nude mice; format: in vivo, mouse; settings: MCF-7 xenograft, 1 and 10 mg/kg intratumoral once every 2 days for 35 days, n = 5 per group, vs control peptide
Description: as §2

MDA-MB-231 cells [4] = test: Transwell invasion assay; format: cell-based, human; settings: MDA-MB-231, 100 μmol/l, 48 hr post-transfection, vs control or TAT-NLS-BLBD-6m (Fig. 3c)
Experimental: as §1

H-TAT-NLS-ATDEMIPF-NH2 [TAT-NLS-BLBD-6]
colony formation (MCF-7 cells): inhibited the mobility and proliferation
colony formation (MDA-MB-231 cells [1]): inhibited the mobility and proliferation
tumor growth [2]: inhibited tumor growth
tumor growth [3]: inhibited tumor growth
invasion (MDA-MB-231 cells [4]): inhibited the mobility
